Several values for one entry are separate records, joined by “and”; a condition that tells them apart may be missing. Equal values may be shown once.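 Test compounds were applied to cells in 96-well plates for 48 hours at 5 doses. GI50: concentration for 50% inhibition of growth.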 Activity calls are given as the source filed them. Cut-off read from the data, not from the text of the source: active = GI50 up to about 1.1 µM and inactive = higher.
Assays:
Test in all cases: inhibition of tumour cell growth, NCI panel, 48 h
ACHN = tested on: ACHN
RXF 393 = tested on: RXF 393
SW-620 = tested on: SW-620
SF-295 = tested on: SF-295
KM12 = tested on: KM12
SK-MEL-28 = tested on: SK-MEL-28
CCRF-CEM = tested on: CCRF-CEM
IGROV-1 = tested on: IGROV-1
HCT-15 = tested on: HCT-15
786-0 = tested on: 786-0
UO-31 = tested on: UO-31
HCT-116 = tested on: HCT-116
HOP-92 = tested on: HOP-92
NCI-H460 = tested on: NCI-H460
CAKI-1 = tested on: CAKI-1
HT-29 = tested on: HT-29
Hs-578T = tested on: Hs-578T
DU-145 = tested on: DU-145
T47D = tested on: T47D

| SMILES | GI50 (ACHN) | GI50 (RXF 393) | GI50 (SW-620) | GI50 (SF-295) | GI50 (KM12) | GI50 (SK-MEL-28) | GI50 (CCRF-CEM) | GI50 (IGROV-1) | GI50 (HCT-15) [µM] | GI50 (786-0) | GI50 (UO-31) | GI50 (HCT-116) | GI50 (HOP-92) | GI50 (NCI-H460) | GI50 (CAKI-1) | GI50 (HT-29) | GI50 (Hs-578T) | GI50 (DU-145) | GI50 (T47D) |
| --- | --- | --- | --- | --- | --- | --- | --- | --- | --- | --- | --- | --- | --- | --- | --- | --- | --- | --- | --- |
| CCN(CC)Cc1cc(Nc2c3ccccc3nc3c4ccccc4n(C)c23)ccc1O | 11.2 µM (inactive) | 11.3 µM (inactive) | 6.07 µM (inactive) | 10 µM (inactive) | 7.73 µM (inactive) | 4.43 µM (inactive) | 2.05 µM (inactive) | 15.4 µM (inactive) | 8.85 | 3.76 µM (inactive) | 9.95 µM (inactive) | 7.16 µM (inactive) | 5.9 µM (inactive) | 7.91 µM (inactive) | 11.2 µM (inactive) | 5.32 µM (inactive) |  |  |  |
| Sc1ncnc2c1ncn2C1CCCO1 (stereo not given) | > 100 µM (inactive) | > 100 µM (inactive) | > 100 µM (inactive) | > 100 µM (inactive) | > 100 µM (inactive) | > 100 µM (inactive) | > 100 µM (inactive) | > 100 µM (inactive) | > 100 | > 100 µM (inactive) | > 100 µM (inactive) | 55.5 µM (inactive) | 39.3 µM (inactive) | > 100 µM (inactive) | > 100 µM (inactive) | > 100 µM (inactive) |  |  |  |
| O=C1NC2C(O)CCCCC2C12CCCCC2 (stereo not given) | > 100 µM (inactive) | > 100 µM (inactive) | > 100 µM (inactive) | > 100 µM (inactive) | > 100 µM (inactive) | > 100 µM (inactive) |  | > 100 µM (inactive) | > 100 | > 100 µM (inactive) | > 100 µM (inactive) | > 100 µM (inactive) | > 100 µM (inactive) | > 100 µM (inactive) | > 100 µM (inactive) | > 100 µM (inactive) |  |  |  |
| CN(C)c1nc2oc(-c3ccccc3)c(-c3ccccc3)c2c2nnnn12 | > 100 µM (inactive) | > 100 µM (inactive) | > 100 µM (inactive) | > 100 µM (inactive) | > 100 µM (inactive) | > 100 µM (inactive) | > 100 µM (inactive) | > 100 µM (inactive) | > 100 | > 100 µM (inactive) | > 100 µM (inactive) | > 100 µM (inactive) | > 100 µM (inactive) |  | > 100 µM (inactive) | > 100 µM (inactive) | > 100 µM (inactive) | > 100 µM (inactive) | > 100 µM (inactive) |
| COC(=O)[C@@]12C=CC(=O)[C@H]3C[C@@H](C(C(C)C)C1)[C@]32OC (stereo not given in full) | > 100 µM (inactive) | > 100 µM (inactive) | > 100 µM (inactive) | > 100 µM (inactive) | > 100 µM (inactive) | > 100 µM (inactive) | > 100 µM (inactive) | > 100 µM (inactive) | > 100 | > 100 µM (inactive) |  | > 100 µM (inactive) | > 100 µM (inactive) | > 100 µM (inactive) | > 100 µM (inactive) | > 100 µM (inactive) |  |  |  |
| N#Cc1ccccc1Nc1ccccc1S | 51.1 µM (inactive) | 18.9 µM (inactive) | 22.1 µM (inactive) | 23.9 µM (inactive) | 38.2 µM (inactive) | 41.2 µM (inactive) | 6.68 µM (inactive) | 26.9 µM (inactive) |  | 20.9 µM (inactive) | 28.2 µM (inactive) |  | 35.1 µM (inactive) | 35.2 µM (inactive) | > 100 µM (inactive) | 57.8 µM (inactive) |  |  |  |
| CCOC(=O)NN(C(=O)OCC)c1ccc(/N=N/c2ccc(OC)cc2)n1C | 23.6 µM (inactive) | 32.4 µM (inactive) |  | 37.4 µM (inactive) | 24 µM (inactive) |  |  | 29 µM (inactive) | 12.5 | 32.2 µM (inactive) | 0.653 µM (active) | 18.6 µM (inactive) | 24.8 µM (inactive) |  |  | 22.4 µM (inactive) | 65.8 µM (inactive) |  | 21 µM (inactive) |
| COC1C(O)C(C)OC(OC2C(Oc3cccc4c(O)c5c(=O)oc6ccc(C)c7c(=O)oc(c34)c5c67)OC(C)C3O[C@H](c4ccccc4)OC32)C1O (stereo not given in full) | 0.0378 µM (active) | 0.274 µM (active) | 0.0631 µM (active) | 0.103 µM (active) |  | 0.319 µM (active) |  | 0.0681 µM (active) | 0.168 | 0.0521 µM (active) | 0.294 µM (active) |  | 1.23 µM (inactive) | 0.0195 µM (active) | 0.207 µM (active) | 0.0877 µM (active) | 0.531 µM (active) | 0.193 µM (active) | 0.196 µM (active) |
| CC1(C)SCc2nc3ncccc3n21 | > 100 µM (inactive) | > 100 µM (inactive) | > 100 µM (inactive) | > 100 µM (inactive) | > 100 µM (inactive) | > 100 µM (inactive) | > 100 µM (inactive) | > 100 µM (inactive) | > 100 | > 100 µM (inactive) | > 100 µM (inactive) |  | > 100 µM (inactive) | > 100 µM (inactive) | > 100 µM (inactive) | > 100 µM (inactive) |  |  |  |
| COc1ccc2oc3cccc(NCCN(C)C)c3c(=O)c2c1 | 10.5 µM (inactive) | 13.2 µM (inactive) | 5.08 µM (inactive) | 16.1 µM (inactive) | 13.1 µM (inactive) | 18.2 µM (inactive) | 11.9 µM (inactive) | 16.6 µM (inactive) | 13.7 | 10.9 µM (inactive) | 8.3 µM (inactive) | 7.01 µM (inactive) | 13.8 µM (inactive) | 8.83 µM (inactive) | 4.69 µM (inactive) | 7.83 µM (inactive) |  |  |  |
| COC(=O)C(C(=O)C(=O)Nc1ccc(Br)cc1)c1nc2ccc(Cl)cc2nc1O (stereo not given) | > 91.8 µM (inactive) | > 100 µM (inactive) | > 20 µM (inactive) | > 100 µM (inactive) | > 66.5 µM (inactive) | > 100 µM (inactive) | > 90.2 µM (inactive) | > 100 µM (inactive) | > 41.2 | > 100 µM (inactive) | > 82.4 µM (inactive) | > 100 µM (inactive) | > 100 µM (inactive) | > 57.1 µM (inactive) | > 100 µM (inactive) | > 48 µM (inactive) |  |  |  |
| CCOC(OCC)C(CC)[Se]c1ccccc1 (stereo not given) | > 100 µM (inactive) | 55.2 µM (inactive) |  | > 100 µM (inactive) | > 100 µM (inactive) | > 100 µM (inactive) | 16.3 µM (inactive) | > 100 µM (inactive) | 15.5 | 19.1 µM (inactive) | > 100 µM (inactive) | 31.8 µM (inactive) | 28.6 µM (inactive) | 45.7 µM (inactive) | > 100 µM (inactive) | > 100 µM (inactive) |  |  |  |
| COc1cc(Br)c(/C=N\c2cccc3ccc(OS(=O)(=O)c4cccc([N+](=O)[O-])c4)cc23)cc1OC | 32.8 µM (inactive) | 16.3 µM (inactive) | 48.1 µM (inactive) | 20.4 µM (inactive) | 30.7 µM (inactive) | 6.52 µM (inactive) | 12.2 µM (inactive) | 58.2 µM (inactive) | 24.5 | 25.4 µM (inactive) | 20.1 µM (inactive) | 30.5 µM (inactive) | 2.44 µM (inactive) | 54.8 µM (inactive) | 19.1 µM (inactive) | 34.7 µM (inactive) |  |  |  |
| CC(N)C(=O)OCN1C(=O)C2C3C=CC(C2C1=O)C1C2C(=O)N(COC(=O)C(C)N)C(=O)C2C31 (stereo not given) | 27.7 µM (inactive) | 22.2 µM (inactive) | 24.4 µM (inactive) | > 100 µM (inactive) | 20.3 µM (inactive) | 21.9 µM (inactive) | 23.1 µM (inactive) | 33.8 µM (inactive) | 19.9 | 20.8 µM (inactive) | 56.4 µM (inactive) | 24.2 µM (inactive) | 57.5 µM (inactive) | 17.6 µM (inactive) | 72.6 µM (inactive) | 34.6 µM (inactive) |  |  |  |
| CCCCCC[C@H]([C@H](C)O)n1cnc2c(N)ncnc21 | 61.5 µM (inactive) | > 100 µM (inactive) | > 100 µM (inactive) | > 100 µM (inactive) | > 100 µM (inactive) | 49.3 µM (inactive) | > 100 µM (inactive) | > 100 µM (inactive) | > 100 | > 100 µM (inactive) | 91.8 µM (inactive) | > 100 µM (inactive) | > 100 µM (inactive) | > 100 µM (inactive) | > 100 µM (inactive) | > 100 µM (inactive) | > 100 µM (inactive) | > 100 µM (inactive) | > 100 µM (inactive) |
| COc1cc(Br)c(CC2C3=C(CCN2C(=O)C2CCC2)CC2(CC3)OCCO2)cc1O (stereo not given) | 98.4 µM (inactive) | 4.84 µM (inactive) | 80.2 µM (inactive) | 49.7 µM (inactive) | 50.6 µM (inactive) | 93.5 µM (inactive) | 52.6 µM (inactive) | 58.7 µM (inactive) | 27.9 | 89.9 µM (inactive) |  | 72.8 µM (inactive) | 56.4 µM (inactive) | 50.2 µM (inactive) | 68.4 µM (inactive) | 24.2 µM (inactive) | 33.8 µM (inactive) | > 100 µM (inactive) | 29.9 µM (inactive) |
| CCc1nc(N)nc(N)c1-c1ccc(Cl)c(N=[N+]=[N-])c1 |  |  | 2.42 µM (inactive) | 2.84 µM (inactive) | 8.63 µM (inactive) | 15.4 µM (inactive) |  |  |  | 3.8 µM (inactive) |  | 1.19 µM (inactive) | 10.7 µM (inactive) |  |  |  | 27.4 µM (inactive) | 12.4 µM (inactive) | 25.3 µM (inactive) |
| COc1ccc2cc1Oc1ccc(cc1)C[C@H]1c3cc(c(OC)cc3CCN1C)Oc1c(OC)c(OC)cc3c1[C@H](C2)N(C)CC3 [FANCHININ] | 7.93 µM (inactive) and 17.1 µM (inactive) | 5.08 µM (inactive) |  | 8.93 µM (inactive) and 36.2 µM (inactive) |  |  | 33 µM (inactive) and 3.54 µM (inactive) | 9.2 µM (inactive) and 49.2 µM (inactive) | 7.78 | 3.05 µM (inactive) and 43.5 µM (inactive) |  | 4.5 µM (inactive) and 50.5 µM (inactive) | 1.79 µM (inactive) and 57.1 µM (inactive) | 6.71 µM (inactive) |  |  | 8.63 µM (inactive) and 30.1 µM (inactive) |  |  |
